How the values were obtained:
established tumors = settings: preclinical mouse models; cited from earlier work
human STING = human STING (Homo sapiens, UniProt Q86WV6); settings: cited from earlier work
[1] = tested on: IRF3 activation in THP-1 Dual Cells; test: IRF3 activation assay in THP-1 Dual Cells (QUANTI-Blue readout); format: cell-based; settings: Homo sapiens, THP1-Dual, 24 h
In short: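 THP-1 Dual cells (100,000/well) were incubated with serially diluted compounds 24 h at 37 °C. […]; EC50 from percent control activity versus log concentration.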

Sequence of human STING (Q86WV6 whole entry H232R): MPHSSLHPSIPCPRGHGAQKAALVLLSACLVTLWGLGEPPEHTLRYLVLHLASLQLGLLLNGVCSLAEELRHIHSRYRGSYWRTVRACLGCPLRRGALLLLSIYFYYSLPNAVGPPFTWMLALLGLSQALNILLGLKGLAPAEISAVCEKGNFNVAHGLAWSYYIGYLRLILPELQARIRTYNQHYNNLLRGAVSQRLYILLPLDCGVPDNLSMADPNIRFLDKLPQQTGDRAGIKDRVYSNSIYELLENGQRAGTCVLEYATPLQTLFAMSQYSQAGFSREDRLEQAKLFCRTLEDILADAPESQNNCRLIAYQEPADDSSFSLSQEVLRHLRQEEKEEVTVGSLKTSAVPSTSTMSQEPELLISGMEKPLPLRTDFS

| EC50 ([1]; Table 2, 24 hours incubation) [nM] | EC50 ([1]; Table 1, 24 hours incubation) [nM] | SMILES | anti-tumor activity (established tumors) | bind and activate human STING (human STING) |
| --- | --- | --- | --- | --- |
|  |  | Cc1ccc2c(=O)c3cccc(CC(=O)O)c3oc2c1C [DMXAA, 5,6-dimethylxanthenone-4-acetic acid] | excellent anti-tumor activity | not human STING |
| 50 to 200 |  | CCn1nc(C)cc1C(=O)Nc1nc2cc(C(N)=O)cc(OCCCO)c2n1C/C=C/Cn1c2nc(-c3cc(C)nn3CC)ncc2c2cc(C(N)=O)cc(OCCCOC(=O)NCCC(=O)O)c21 [Example 57, (E)-3-((3-(6-carbamoyl-9-(4-(5-carbamoyl-2-(1-ethyl-3-methyl-1H-pyrazole-5-carboxamido)-7-(3-hydroxypropoxy)-1H-benzo[d]imidazol-1-yl)but-2-enyl)-2-(1-ethyl-3-methyl-1H-pyrazol-5-yl)-9H-pyrimido[4,5-b]indol-8-yloxy)propoxy)carbonylamino)propanoic Acid] |  |  |
| < 50 | < 200 | CCn1nc(C)cc1C(=O)Nc1nc2cc(C(N)=O)cc(OCCCOC(=O)c3cc(C)nn3CC)c2n1C/C=C/Cn1c2nc(-c3cc(C)nn3CC)ncc2c2cc(C(N)=O)cc(OC)c21 [Example 15, (E)-3-((5-carbamoyl-1-(4-(6-carbamoyl-2-(1-ethyl-3-methyl-1H-pyrazol-5-yl)-8-methoxy-9H-pyrimido[4,5-b]indol-9-yl)but-2-en-1-yl)-2-(1-ethyl-3-methyl-1H-pyrazole-5-carboxamido)-1H-benzo[d]imidazol-7-yl)oxy)propyl 1-ethyl-3-methyl-1H-pyrazole-5-carboxylate] |  |  |
|  | < 1000 | CCn1nc(C)cc1C(=O)Nc1nc2cc(C(N)=O)cc(C)c2n1C/C=C/Cn1c2ccc(C(N)=O)cc2c2cnc(-c3cc(C)nn3C)nc21 [Example 3, (E)-9-(4-(5-carbamoyl-2-(1-ethyl-3-methyl-1H-pyrazole-5-carboxamido)-7-methyl-1H-benzo[d]imidazol-1-yl)but-2-enyl)-2-(1,3-dimethyl-1H-pyrazol-5-yl)-9H-pyrimido[4,5-b]indole-6-carboxamide] |  |  |
| < 50 |  | CCn1nc(C)cc1C(=O)Nc1nc2cc(C(N)=O)cc(OCCCNC(=O)NCC(=O)O)c2n1C/C=C/Cn1c2nc(-c3cc(C)nn3CC)ncc2c2cc(C(N)=O)cc(OCCCOC)c21 [Example 41, (E)-((3-((5-carbamoyl-1-(4-(6-carbamoyl-2-(1-ethyl-3-methyl-1H-pyrazol-5-yl)-8-(3-methoxypropoxy)-9H-pyrimido[4,5-b]indol-9-yl)but-2-en-1-yl)-2-(1-ethyl-3-methyl-1H-pyrazole-5-carboxamido)-1H-benzo[d]imidazol-7-yl)oxy)propyl)carbamoyl)glycine] |  |  |
| < 50 | < 200 | CCn1nc(C)cc1C(=O)Nc1nc2cc(C(N)=O)cc(C)c2n1C/C=C/Cn1c2nc(-c3cc(C)nn3CC)ccc2c2cc(C(N)=O)cc(OC)c21 [Example 14, (E)-9-(4-(5-carbamoyl-2-(1-ethyl-3-methyl-1H-pyrazole-5-carboxamido)-7-methyl-1H-benzo[d]imidazol-1-yl)but-2-enyl)-2-(1-ethyl-3-methyl-1H-pyrazol-5-yl)-8-methoxy-9H-pyrido[2,3-b]indole-6-carboxamide] |  |  |
| < 50 | < 200 | CCn1nc(C)cc1C(=O)Nc1nc2cc(C(N)=O)cc(C)c2n1C/C=C/Cn1c2nc(-c3cc(C)nn3CC)ncc2c2cc(C(N)=O)cc(OCCCOC)c21 [Example 12, (E)-9-(4-(5-carbamoyl-2-(1-ethyl-3-methyl-1H-pyrazole-5-carboxamido)-7-methyl-1H-benzo[d]imidazol-1-yl)but-2-enyl)-2-(1-ethyl-3-methyl-1H-pyrazol-5-yl)-8-(3-methoxypropoxy)-9H-pyrimido[4,5-b]indole-6-carboxamide] |  |  |
| 500 to 1000 |  | CCn1nc(C)cc1C(=O)Nc1nc2cc(C(N)=O)cc(OCCCN)c2n1C/C=C/Cn1c2nc(-c3cc(C)nn3CC)ncc2c2cc(C(N)=O)cc(OCCCOC)c21 [Example 33, (E)-9-(4-(7-(3-aminopropoxy)-5-carbamoyl-2-(1-ethyl-3-methyl-1H-pyrazole-5-carboxamido)-1H-benzo[d]imidazol-1-yl)but-2-en-1-yl)-2-(1-ethyl-3-methyl-1H-pyrazol-5-yl)-8-(3-methoxypropoxy)-9H-pyrimido[4,5-b]indole-6-carboxamide] |  |  |
| < 50 |  | CCn1nc(C)cc1C(=O)Nc1nc2cc(C(N)=O)cc(OCCOCCOCCC(=O)O)c2n1C/C=C/Cn1c2nc(-c3cc(C)nn3CC)ncc2c2cc(C(N)=O)cc(OCCCOC)c21 [Example 44, (E)-3-(2-(2-((5-carbamoyl-1-(4-(6-carbamoyl-2-(1-ethyl-3-methyl-1H-pyrazol-5-yl)-8-(3-methoxypropoxy)-9H-pyrimido[4,5-b]indol-9-yl)but-2-en-1-yl)-2-(1-ethyl-3-methyl-1H-pyrazole-5-carboxamido)-1H-benzo[d]imidazol-7-yl)oxy)ethoxy)ethoxy)propanoic Acid] |  |  |
| < 50 |  | CCn1nc(C)cc1C(=O)Nc1nc2cc(C(N)=O)cc(OC)c2n1C/C=C/Cn1c2nc(-c3cc(C)nn3CC)ncc2c2cc(C(N)=O)cc(OCCCNC(=O)OCCC(=O)O)c21 [Example 47, (E)-3-(3-(6-carbamoyl-9-(4-(5-carbamoyl-2-(1-ethyl-3-methyl-1H-pyrazole-5-carboxamido)-7-methoxy-1H-benzo[d]imidazol-1-yl)but-2-enyl)-2-(1-ethyl-3-methyl-1H-pyrazol-5-yl)-9H-pyrimido[4,5-b]indol-8-yloxy)propylcarbamoyloxy)propanoic Acid] |  |  |
